In patent US6617350B2, “Inhibitors of aspartyl protease” (priority 1999, dated 2003):
Like-named read-outs stand apart in the source and are kept apart here.

How the values were obtained:
HIV-1 protease = HIV-1 protease (Human immunodeficiency virus type 1 group M subtype B, UniProt P04585); assay: biochemical
HIV-1 (strain IIIB) = assay: microbe, parasite or virus in culture; assay type: cell-based; conditions: read-out: IC50
[1] = Table 12, HIV-1 protease, read-out: Ki
[2] = Human immunodeficiency virus 1, IIIB, MT4, Table 12, anti-viral potency in MT-4 cells
[3] = Table 12, anti-viral potency in MT-4 cells

CC(C)(CCC#N)CN(CC(O)C(Cc1ccccc1)NC(=O)OC1COC2OCCC12)S(=O)(=O)c1ccc(O)cc1 [Compound 35, {(1S,2R)-3-[(4-hydroxybenzenesulfonyl)-(4-cyano-2,2-dimethyl-butyl)-amino]-1-benzyl-2-hydroxy-propyl}-carbamic acid (2R,3aS,6aR)hexahydro-furo[2,3-b]furan-3-yl ester]
Ki (HIV-1 protease; [1]): < 1 nM
IC50 (HIV-1 (strain IIIB); [2]): ≤ 100 nM

CC(C)(CCC#N)CN(C[C@@H](O)[C@H](Cc1ccccc1)NC(=O)OC1COCOC1)S(=O)(=O)c1ccc2c(c1)OCO2 [Compound 36, {(1S,2R)-3-[(Benzo[1,3]dioxole-5-sulfonyl)-(4-cyano-2,2-dimethyl-butyl)-amino]-1-benzyl-2-hydroxy-propyl}-carbamic acid[1,3]dioxan-5-yl ester]
Ki (HIV-1 protease; [1]): < 1 nM
IC50 (HIV-1 (strain IIIB); [2]): ≤ 100 nM

CC(C)(CCC#N)CN(CC(O)C(Cc1ccccc1)NC(=O)OC1COC2OCCC12)S(=O)(=O)c1ccc2c(c1)OCCO2 (stereo not drawn) [Compound 37]
Ki (HIV-1 protease; [1]): < 1 nM
IC50 (HIV-1 (strain IIIB); [2]): ≤ 100 nM

CNc1cccc(S(=O)(=O)N(CC(O)C(Cc2ccccc2)NC(=O)OC2COC3OCCC23)CC(C)(C)CCCC#N)c1 (stereo not drawn) [Compound 38]
Ki (HIV-1 protease; [1]): < 1 nM
IC50 (HIV-1 (strain IIIB); [2]): ≤ 100 nM

CC(C)(CCCC#N)CN(CC(O)C(Cc1ccccc1)NC(=O)OC1COC2OCCC12)S(=O)(=O)c1ccc2c(c1)OCO2 (stereo not drawn) [Compound 39]
Ki (HIV-1 protease; [1]): < 1 nM
IC50 (HIV-1 (strain IIIB); [2]): ≤ 100 nM
IC50 (HIV-1 (strain IIIB); Human immunodeficiency virus 1, IIIB, MT4, Table 13, MT-4 cell based assay, class symbol): 1 to 10 nM

CC(C)(CCCC#N)CN(CC(O)C(Cc1ccccc1)NC(=O)OC1COC2OCCC12)S(=O)(=O)c1ccc2c(c1)OCCO2 (stereo not drawn) [Compound 40]
Ki (HIV-1 protease; [1]): < 1 nM
IC50 (HIV-1 (strain IIIB); [2]): ≤ 100 nM

CC(C)(CCC#N)CN(CC(O)C(Cc1ccccc1)NC(=O)OC1COC2OCCC12)S(=O)(=O)c1ccc2c(c1)OCCO2 (stereo not drawn) [Compound 41]
Ki (HIV-1 protease; [1]): < 1 nM
IC50 (HIV-1 (strain IIIB); [3]): ≤ 100 nM

CC(C)(CCC#N)CN(C[C@@H](O)[C@H](Cc1ccccc1)NC(=O)OC1COCOC1)S(=O)(=O)c1ccc(O)cc1 [Compound 42, {(1S,2R)-1-Benzyl-3-[(4-cyano-2,2-dimethyl-butyl)-(4-hydroxybenzenesulfonyl)-amino]-2-hydroxy-propyl}-carbamic acid[1,3]dioxan-5-yl ester]
Ki (HIV-1 protease; [1]): < 1 nM
IC50 (HIV-1 (strain IIIB); [2]): 100 to 500 nM

CCN(C(=O)OC(C)(C)C)c1cccc(S(=O)(=O)N(CC(O)C(Cc2ccccc2)NC(=O)OC2COC3OCCC23)CC(C)(C)CCC#N)c1 [Compound 43, {(1S,2R)-3-[(3-N-tert-butoxycarbonyl-N-ethylaminophenyl)sulfonyl]-(4-cyano-2,2-dimethyl-butyl)-amino]-1-benzyl-2-hydroxy-propyl}-carbamic acid (3R,3aS,6aR)hexahydro-furo[2,3-b]furan-3-yl ester]
Ki (HIV-1 protease; [1]): < 1 nM
IC50 (HIV-1 (strain IIIB); [2]): 100 to 500 nM

COc1ccc(S(=O)(=O)N(C=C(C#N)C#N)C[C@@H](O)[C@H](Cc2ccccc2)NC(=O)OC(C)(C)C)cc1 [Compound 113]
Ki (HIV-1 protease; [1]): 10 to 100 nM
IC50 (HIV-1 (strain IIIB); [2]): 500 to 1000 nM

COc1ccc(S(=O)(=O)N(CCC#N)C[C@@H](O)[C@H](Cc2ccccc2)NC(=O)O[C@H]2CO[C@H]3OCC[C@H]32)cc1 [Compound 124, {(1S,2R)-3-[(4-methoxybenzenesulfonyl)-(2-cyanoethyl)-amino]-1-benzyl-2-hydroxy-propyl}-carbamic acid (3R,3aS,6aR)hexahydro-furo[2,3-b]furan-3-yl ester]
Ki (HIV-1 protease; [1]): < 1 nM
IC50 (HIV-1 (strain IIIB); [2]): ≤ 100 nM

COc1ccc(S(=O)(=O)N(CCC#N)C[C@@H](O)[C@H](Cc2ccccc2)NC(=O)OC2COCOC2)cc1 [Compound 125]
Ki (HIV-1 protease; [1]): < 1 nM
IC50 (HIV-1 (strain IIIB); [2]): > 1000 nM

COc1ccc(S(=O)(=O)N(CCCCC2(C)OCCO2)C[C@@H](O)[C@H](Cc2ccccc2)NC(=O)OC(C)(C)C)cc1 [Compound 201, tert-Butyl N-((1S,2R)-1-benzyl-2-hydroxy-3-[(4-methoxyphenyl)sulfonyl][4-(2-methyl-1,3-dioxolan-2-yl)butyl]aminopropyl)carbamate]
Ki (HIV-1 protease; [1]): 1 to 10 nM
IC50 (HIV-1 (strain IIIB); [2]): > 1000 nM

COc1ccc(S(=O)(=O)N(CCCCC2(C)OCCO2)C[C@@H](O)[C@H](Cc2ccccc2)NC(=O)OC(C)(C)C)cc1 [Compound 204, tert-Butyl N-((1S,2R)-1-benzyl-2-hydroxy-3-[(4-methoxyphenyl)sulfonyl][4-(2-methyl-1,3-dioxolan-2-yl)butyl]aminopropyl)carbamate]
Ki (HIV-1 protease; [1]): 1 to 10 nM
IC50 (HIV-1 (strain IIIB); [3]): 500 to 1000 nM

COc1ccc(S(=O)(=O)N(CCCCC(C)=O)C[C@@H](O)[C@H](Cc2ccccc2)NC(=O)O[C@H]2CCOC2)cc1 [Compound 205, (3S)-Tetrahydro-3-furanyl N-(1S,2R)-1-benzyl-2-hydroxy-3-[[(4-methoxyphenyl)sulfonyl](5-oxohexyl)amino]-propylcarbamate]
Ki (HIV-1 protease; [1]): < 1 nM
IC50 (HIV-1 (strain IIIB); [2]): 500 to 1000 nM

CCC(CCC(C)=O)CN(CC(O)[C@H](Cc1ccccc1)NC(=O)OC1CCOC1)S(=O)(=O)c1ccc(OC)cc1 (stereo partly drawn) [Compound 206, (3S)-Tetrahydro-3-furanyl N-((1S,2R)-1-benzyl-3-(2-ethyl-5-oxohexyl)[(4-methoxyphenyl)sulfonyl]amino-2-hydroxypropyl)carbamate]
Ki (HIV-1 protease; [1]): < 1 nM
IC50 (HIV-1 (strain IIIB); [2]): ≤ 100 nM

COc1ccc(S(=O)(=O)N(CC(C)CCC(C)=O)CC(O)[C@H](Cc2ccccc2)NC(=O)OC2CCOC2)cc1 (stereo partly drawn) [Compound 207, (3S)-Tetrahydro-3-furanyl N-(1S, 2R)-1-benzyl-2-hydroxy-3-[[(4-methoxyphenyl)sulfonyl](2-methyl-5-oxohexyl)amino]propylcarbamate]
Ki (HIV-1 protease; [1]): < 1 nM
IC50 (HIV-1 (strain IIIB); [2]): ≤ 100 nM

COc1ccc(S(=O)(=O)N(C[C@@H](O)[C@H](Cc2ccccc2)NC(=O)O[C@H]2CCOC2)CC(C)(C)CCC(C)=O)cc1 [Compound 208, (3S)-Tetrahydro-3-furanyl N-((1S,2R)-1-benzyl-3-(2-,2-dimethyl-5-oxohexyl)[(4-methoxyphenyl)sulfonyl]amino-2-hydroxypropyl)carbamate]
Ki (HIV-1 protease; [1]): < 1 nM
IC50 (HIV-1 (strain IIIB); [2]): 100 to 500 nM

COc1ccc(S(=O)(=O)N(C[C@@H](O)[C@H](Cc2ccccc2)NC(=O)O[C@H]2CCOC2)CC(C)(C)CCCC(C)=O)cc1 [Compound 209]
Ki (HIV-1 protease; [1]): < 1 nM
IC50 (HIV-1 (strain IIIB); [2]): 100 to 500 nM

COC(=O)NCCCC(C)(C)CN(CC(O)C(Cc1ccccc1)NC(=O)OC1COC2OCCC12)S(=O)(=O)c1ccc(OC)cc1 [Compound 213, (3R,3aS,6aR)hexahydrofuro[2,3-b]furan-3-yl N-((1S,2R)-1-benzyl-2-hydroxy-3-5-[(methoxycarbonyl)amino]-2,2-dimethylpentyl[(4-methoxyphenyl)sulfonyl]aminopropyl)carbamate and (3S,3aR,6aS)hexahydrofuro[2,3-b]furan-3-yl N-((1S,2R)-1-benzyl-2-hydroxy-3-5-[(methoxycarbonyl)amino]-2,2-dimethylpentyl[(4-methoxyphenyl)sulfonyl]aminopropyl)carbamate]
Ki (HIV-1 protease; [1]): < 1 nM
IC50 (HIV-1 (strain IIIB); [2]): ≤ 100 nM

COc1ccc(S(=O)(=O)N(CC(O)C(Cc2ccccc2)NC(=O)OC2COC3OCCC23)CC(C)(C)CCCNS(C)(=O)=O)cc1 [Compound 215, (3R,3aS,6aR)hexahydrofuro[2,3-b]furan-3-yl N-((1S,2R)-1-benzyl-3-2,2-dimethyl-5-[(methylsulfonyl)amino]pentyl[(4-methoxyphenyl)sulfonyl]amino-2-hydroxypropyl)carbamate and (3S,3aR, 6aS)hexahydrofuro[2,3-b]furan-3-yl N-((1s,2R)-1-benzyl-3-2,2-dimethyl-5-[(methylsulfonyl)amino]pentyl[(4-methoxyphenyl)sulfonyl]amino-2-hydroxypropyl)carbamate]
Ki (HIV-1 protease; [1]): < 1 nM
IC50 (HIV-1 (strain IIIB); [2]): ≤ 100 nM

COC(=O)NCCC(C)(C)CN(CC(O)C(Cc1ccccc1)NC(=O)OC1COC2OCCC12)S(=O)(=O)c1ccc(OC)cc1 [Compound 218, (3R,3aS,6aR)hexahydrofuro[2,3-b]furan-3-yl N-((1S,2R)-1-benzyl-2-hydroxy-3-4-[(methoxycarbonyl)amino]-2,2-dimethylbutyl[(4-methoxyphenyl)sulfonyl]aminopropyl)carbamate and (3S,3aR,6aS)hexahydrofuro[2,3-b]furan-3-yl N-((1S,2R)-1-benzyl-2-hydroxy-3-4-[(methoxycarbonyl)amino]-2,2-dimethylbutyl[(4-methoxyphenyl)sulfonyl]aminopropyl)carbamate]
Ki (HIV-1 protease; [1]): < 1 nM
IC50 (HIV-1 (strain IIIB); [2]): ≤ 100 nM

COc1ccc(S(=O)(=O)N(CC(O)C(Cc2ccccc2)NC(=O)OC2COC3OCCC23)CC(C)(C)CCNS(C)(=O)=O)cc1 [Compound 220, (3R,3aS,6aR)hexahydrofuro[2,3-b]furan-3-yl N-((1S,2R)-1-benzyl-3-2,2-dimethyl-4-[(methylsulfonyl)amino]butyl[(4-methoxyphenyl)sulfonyl]amino-2-hydroxypropyl)carbamate and (3S,3aR,6aS)hexahydrofuro[2,3-b]furan-3-yl N-((1S,2R)-1-benzyl-3-2,2-dimethyl-4-[(methylsulfonyl)amino]butyl[(4-methoxyphenyl)sulfonyl]amino-2-hydroxypropyl)carbamate]
Ki (HIV-1 protease): < 1 nM
IC50 (HIV-1 (strain IIIB); [2]): ≤ 100 nM

CNC(=O)OCCC(C)(C)CN(CC(O)[C@H](Cc1ccccc1)NC(=O)OC1COC2OCCC12)S(=O)(=O)c1ccc(OC)cc1 (stereo partly drawn) [Compound 221, (3R,3aS,6aR)-Hexahydrofuro[2,3-b]furan-3-yl N-((1S,2R)-1-benzyl-3-(2,2-dimethyl-4-N′-methylcarbamoyloxybutyl)[(4-methoxyphenyl)sulfonyl]amino-2-hydroxypropyl)carbamate]
Ki (HIV-1 protease; [1]): < 1 nM
IC50 (HIV-1 (strain IIIB); [2]): ≤ 100 nM

COC(=N[N+](=O)[O-])NCCC(C)(C)CN(CC(O)C(Cc1ccccc1)NC(=O)OC1COC2OCCC12)S(=O)(=O)c1ccc(OC)cc1 (stereo not drawn) [Compound 223]
Ki (HIV-1 protease; [1]): < 1 nM
IC50 (HIV-1 (strain IIIB); [2]): ≤ 100 nM
